Measured values reported in ChEMBL document CHEMBL1151271, “Phrygiasterol, a cytotoxic cyclopropane-containing polyhydroxysteroid, and related compounds from the pacific starfish Hippasteria phrygiana” (J Nat Prod, 2005).
≈ marks a conversion by molar mass, not a printed value.

Columns and labels:
Type in all cases: functional, cell-based
Ehrlich = test: Induction of apoptosis in mouse EAC assessed as early apoptotic cell by Hoechst and PI staining
Splenocyte = test: Inhibition of calcium influx in mouse splenocytes
[1] = Cytotoxicity against mouse EAC; settings: Ehrlich

| SMILES | EC50 (Ehrlich) | EC50 (Splenocyte) | IC50 [1] |
| --- | --- | --- | --- |
| CO[C@@H]1[C@@H](O)[C@H](O[C@@H](CC[C@@H](C)[C@H]2C[C@H](O)[C@@H]3[C@]2(C)CC[C@@H]2[C@@]4(C)CC[C@H](O)C[C@@H]4[C@@H](O)C[C@]23O)C(C)C)OC[C@H]1O [BOREALOSIDE C] | 70 µg/mL (≈ 117 µM) | 20 µg/mL (≈ 33.4 µM) | – |
| C[C@H](CC[C@@H]1C[C@H]1CO)[C@H]1[C@@H](O)[C@H](O)[C@@H]2[C@]1(C)CC[C@@H]1[C@@]3(C)CC[C@H](O)C[C@@H]3[C@@H](O)C[C@]12O [PHRYGIASTEROL] | – | – | 50 µg/mL (≈ 107 µM) |
| CO[C@@H]1[C@@H](O)[C@H](O[C@@H](CC[C@@H](C)[C@H]2C[C@H](O)[C@@H]3[C@]2(C)CC[C@@H]2[C@@]4(C)CC[C@H](O)C[C@@H]4[C@@H](O)C[C@]23O)C(C)C)OC[C@H]1OS(=O)(=O)[O-].[Na+] [PHRYGIOSIDE B] | 70 µg/mL | 20 µg/mL | – |
